Assay [1] has as its system H460 cells. The assay can be described thus: alamarBlue H460 cell assay (antiproliferative/cytotoxicity). The class given is cell-based. Particulars: NCI-H460; H460 human lung carcinoma cells. An outline of the steps:
(§1)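 Readout is alamarBlue reduction by metabolically active cells, measured fluorometrically (excitation 530-560 nm, emission 590 nm) after 8 h at 37 °C. Compounds are applied for 5-6 days from a top final concentration of 10 μM in 1:3 steps, tested in duplicate. EC50 is derived from blank-corrected signals.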
(In general: Alamar Blue is a resazurin reagent that responds to reducing activity.)

For assay [2], the system named is MB453 cells. As to the kind of experiment: alamarBlue MB453 cell assay (antiproliferative/cytotoxicity). The class given is cell-based. The note with it: Homo sapiens; MDA MB 453 breast cancer cell line. An outline of the steps: as §1
Assay [3] relates to U87 cells. The assay can be described thus: U87 cell assay (antiproliferative/cytotoxicity). The assay is classed as cell-based. The note with it: U-87MG human glioblastoma cells. An outline of the steps:
as §1

Assay [4] concerns MCF7 cells. As to the kind of experiment: alamarBlue MCF7 cell assay (antiproliferative/cytotoxicity). The assay is classed as cell-based. Particulars: MCF7 human breast cancer cell line. An excerpt:
The H460, MB453, U87, MCF7 and BT474 alamarBlue cell assays provide EC50 values indicative of the antiproliferative or cytotoxic effects of the compounds to respectively the H460 (human non small cell line cancer), MB-453 (breast cancer cell line), U87 (glioblastoma cell line), MCF7 (breast cancer cell line) and BT474 (breast cancer cell line). As known in the field, antiproliferative or cytotoxic effect against this cell lines would be expected to be indicative of activity in treating lung, breast and brain cancers. See R. Marone R et al. Biochim. Biophys. Acta. 2008 January; 1784(1):159-85. S. Yaguchi et al., J. Natl. Cancer Inst. 2006 Apr. 19; 98(8):545-56.
Method Type: Antiproliferative/Cytotoxicity
alamarBlue® is designed to provide a rapid and sensitive measure of cell proliferation and cytotoxicity in various human and animal cell lines. The assay is based on the reduction of alamarBlue in the reducing environment of living (metabolically active) cells. In the presence of added cytotoxic or antiproliferative compounds, the innate metabolic activity ceases.
AlamarBlue is soluble and stable in culture medium. Measurements are made fluorometrically by exciting at 530-560 nm and measuring emission at 590 nm. In reporting percent alamarBlue reduction by monitoring fluorescence, data are expressed as fluorescence emission intensity units as a function of time of incubation.
3. Equipment • 96-well plates, flat bottom (Falcon, Cat. No.: 353072) • 96-well plates, U-shaped (Costar, Cat. No.: 3799) • CO2-Incubator • Microplate Reader, Spectramax Plus, Molecular Devices 4. Typical Procedure • Day 0: Seed 3000 BT-474 cells (IMDM/5% FCS, 1% NEAA, 1% Sodiumpyruvat) in 150 μl medium into a 96-well plate, flat bottom (include mediumblank). Incubate plates at 37° C. in a CO2 incubator overnight. • Day 1: Dilute compounds to a concentration 40 μM->1:3 in medium, 10 dilution steps, in 96-well plates. • Add 50 μl per well of each dilution (total volume per well 200 μl; final conc. of cpds: 10 μM->1:3). If required, test further dilutions. • All concentrations are tested in duplicates. • Controls: Cells w/o cpd. (+50 μl medium/DMSO). • Cells are incubated with compounds for 5-6 days. • Day 6 or 7: Add 25 μl of alamarBlue solution to each well and incubate for 8 hours at 37° C. Measure fluorescence by exciting at 530-560 nm and measuring emission at 590 nm. 5. Evaluation • Subtract average value for medium blank from sample readings • Calculate EC50 using GraphPad Prism (Fifty)

Assay [5] relates to BT474 cells. As to the kind of experiment: alamarBlue BT474 cell assay (antiproliferative/cytotoxicity). The assay is classed as cell-based. Particulars: BT-474 human breast cancer cell line. An outline of the steps: as §1
For assay [6], the target named is PI3Kalpha (Homo sapiens (Human), UniProt P42336). The assay can be described thus: Inhibition of PI3Kalpha-induced PIP-2 phosphorylation (filter-binding assay). The class given is biochemical. Particulars: 33P-ATP, p85alpha/His-p110alpha, read-out: IC50 PI3Kα. An outline of the steps: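 Radiometric filter-binding assay: PI3Kα (25 ng/well) preincubated 20 min at room temperature with compound and PIP2-containing lipid vesicles plus phosphotyrosine PDGFRβ peptide. Reaction started with cold ATP (1 μM final) and [33P]-ATP and run 120 min at room temperature; filter-captured radioactivity counted, IC50 from duplicate dilution series.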
PI3Kalpha, sequence (P42336 whole entry): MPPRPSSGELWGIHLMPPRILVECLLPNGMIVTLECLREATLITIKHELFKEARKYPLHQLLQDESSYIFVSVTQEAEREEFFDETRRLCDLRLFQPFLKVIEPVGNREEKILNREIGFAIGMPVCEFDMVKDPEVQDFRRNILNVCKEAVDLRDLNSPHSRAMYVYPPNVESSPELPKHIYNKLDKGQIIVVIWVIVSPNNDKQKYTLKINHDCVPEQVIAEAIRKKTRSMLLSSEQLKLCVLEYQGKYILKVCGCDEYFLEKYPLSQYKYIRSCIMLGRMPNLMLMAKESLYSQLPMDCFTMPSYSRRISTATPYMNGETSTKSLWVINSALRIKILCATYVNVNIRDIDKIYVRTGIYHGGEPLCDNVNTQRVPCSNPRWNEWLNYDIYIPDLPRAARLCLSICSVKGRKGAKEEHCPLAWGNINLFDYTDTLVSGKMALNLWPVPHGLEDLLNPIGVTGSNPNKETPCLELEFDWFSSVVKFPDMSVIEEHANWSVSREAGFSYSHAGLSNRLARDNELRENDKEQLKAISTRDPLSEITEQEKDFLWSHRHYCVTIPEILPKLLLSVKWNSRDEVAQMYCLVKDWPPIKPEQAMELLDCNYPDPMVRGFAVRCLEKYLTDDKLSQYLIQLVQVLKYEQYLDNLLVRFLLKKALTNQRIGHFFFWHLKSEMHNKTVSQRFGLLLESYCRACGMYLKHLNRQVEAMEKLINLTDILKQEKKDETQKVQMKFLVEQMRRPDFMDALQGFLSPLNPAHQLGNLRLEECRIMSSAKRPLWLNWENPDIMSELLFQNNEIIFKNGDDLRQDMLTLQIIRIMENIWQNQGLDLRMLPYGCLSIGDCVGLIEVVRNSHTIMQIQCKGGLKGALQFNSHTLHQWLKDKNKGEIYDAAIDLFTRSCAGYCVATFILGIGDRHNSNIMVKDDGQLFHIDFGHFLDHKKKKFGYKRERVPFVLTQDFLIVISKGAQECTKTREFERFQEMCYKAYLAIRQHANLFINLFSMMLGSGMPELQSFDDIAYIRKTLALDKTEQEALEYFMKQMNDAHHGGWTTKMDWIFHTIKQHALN

The values below come from patent US8598157B2, “5-alkynyl-pyridines” (Boehringer Ingelheim International GmbH, priority 2011, dated 2013).

SMILES strings stand for the structures.

`Cc1ncc(C#Cc2c(C)ncnc2N2CCOCC2)cc1NS(=O)(=O)c1cccs1` [Example I-10, Thiophene-2-sulfonic acid [2-methyl-5-(4-methyl-6-morpholin-4-yl-pyrimidin-5-ylethynyl)-pyridin-3-yl]-amide]: the EC50 (as a rule, the concentration giving half of the maximal effect) in assay [1] turned out to be 42 nM; in assay [2], 113 nM; in assay [3], 126 nM; in assay [4], 67 nM; in assay [5], 116 nM. Besides, in assay [6], the IC50 (as a rule, the concentration that gives 50% inhibition) is 0.72 nM.

Regarding `Cc1ccccc1S(=O)(=O)Nc1cc(C#Cc2c(C)ncnc2N2CCOCC2)cnc1C` [Example I-11, 2-Methyl-N-[2-methyl-5-(4-methyl-6-morpholin-4-yl-pyrimidin-5-ylethynyl)-pyridin-3-yl]-benzenesulfonamide], the EC50 in assay [1] worked out at 56 nM; in assay [2], 298 nM; in assay [3], 466 nM; in assay [4], 190 nM; in assay [5], 271 nM. Further, in assay [6], the IC50 amounted to 1 nM.

Take `COCCS(=O)(=O)Nc1cc(C#Cc2c(C)ncnc2N2CCOCC2)cnc1C` [Example I-12, 2-Methoxy-ethanesulfonic acid [2-methyl-5-(4-methyl-6-morpholin-4-yl-pyrimidin-5-ylethynyl)-pyridin-3-yl]-amide]: the EC50 amounted to 486 nM in assay [1]; 839 nM in assay [2]; 1290 nM in assay [3]; 464 nM in assay [4]; 684 nM in assay [5]. Besides, in assay [6], the IC50 turned out to be 4 nM.

Consider `Cc1ncc(C#Cc2c(C)ncnc2N2CCOCC2)cc1NS(=O)(=O)c1ccccc1C(F)(F)F` [Example I-13, N-[2-Methyl-5-(4-methyl-6-morpholin-4-yl-pyrimidin-5-ylethynyl)-pyridin-3-yl]-2-trifluoromethyl-benzenesulfonamide], for which the EC50 is 23 nM in assay [1]; 63 nM in assay [2]; 108 nM in assay [3]; 18 nM in assay [4]; 69 nM in assay [5]. Further, the IC50 in assay [6] amounted to 0.63 nM.

Turning to `Cc1ncc(C#Cc2c(C)ncnc2N2CCCCC2)cc1NS(=O)(=O)c1ccc(F)cc1F` [Example I-14, 2,4-Difluoro-N-[2-methyl-5-(4-methyl-6-piperidin-1-yl-pyrimidin-5-ylethynyl)-pyridin-3-yl]-benzenesulfonamide], the EC50 in assay [1] was 245 nM; in assay [2], 444 nM; in assay [3], 615 nM; in assay [4], 114 nM; in assay [5], 252 nM. Besides, the IC50 in assay [6] came out at 0.85 nM.

`Cc1ncc(C#Cc2c(C)ncnc2N(C)C(C)C)cc1NS(=O)(=O)c1ccc(F)cc1F` [Example I-15, 2,4-Difluoro-N-{5-[4-(isopropyl-methyl-amino)-6-methyl-pyrimidin-5-ylethynyl]-2-methyl-pyridin-3-yl}-benzenesulfonamide]: the EC50 in assay [1] worked out at 376 nM; in assay [2], 898 nM; in assay [3], 1670 nM; in assay [4], 163 nM; in assay [5] it was 318 nM. Besides, in assay [6], the IC50 worked out at 0.74 nM.

For the compound `Cc1ncc(C#Cc2c(C)ncnc2N(C)C2CCOCC2)cc1NS(=O)(=O)c1ccc(F)cc1F` [Example I-16, 2,4-Difluoro-N-(2-methyl-5-{4-methyl-6-[methyl-(tetrahydro-pyran-4-yl)-amino]-pyrimidin-5-ylethynyl}-pyridin-3-yl)-benzenesulfonamide], the EC50 was 226 nM in assay [1]; 397 nM in assay [2]; 839 nM in assay [3]; 118 nM in assay [4]; 309 nM in assay [5]. Further, the half-maximal inhibitory concentration (IC50) in assay [6] was found to be 0.86 nM.

Consider `CC(=O)N1CCN(c2ncnc(C)c2C#Cc2cnc(C)c(NS(=O)(=O)c3ccc(F)cc3F)c2)CC1` [Example I-17, N-{5-[4-(4-Acetyl-piperazin-1-yl)-6-methyl-pyrimidin-5-ylethynyl]-2-methyl-pyridin-3-yl}-2,4-difluoro-benzenesulfonamide], for which the EC50 in assay [1] came to 965 nM; in assay [2], 521 nM; in assay [3] it was 1890 nM; in assay [4] it was 73 nM; in assay [5], 354 nM. Also, in assay [6], the IC50 was found to be 0.79 nM.

Regarding `Cc1ncc(C#Cc2c(C)ncnc2N2CCN(C)CC2)cc1NS(=O)(=O)c1ccc(F)cc1F` [Example I-18, 2,4-Difluoro-N-{2-methyl-5-[4-methyl-6-(4-methyl-piperazin-1-yl)-pyrimidin-5-ylethynyl]-pyridin-3-yl}-benzenesulfonamide], the EC50 in assay [1] is 269 nM; in assay [2] it was 418 nM; in assay [3], 358 nM; in assay [4] it was 72 nM; in assay [5], 221 nM. Further, the IC50 in assay [6] was 1 nM.

Turning to `Cc1ncnc(N2CCOCC2)c1C#Cc1cncc(NS(=O)(=O)c2ccccc2)c1` [Example I-19, N-[5-(4-Methyl-6-morpholin-4-yl-pyrimidin-5-ylethynyl)-pyridin-3-yl]-benzenesulfonamide], the concentration giving a half-maximal response (EC50) came out at 319 nM in assay [1]; 387 nM in assay [2]; 707 nM in assay [3]; 56 nM in assay [4]; 373 nM in assay [5]. For the same compound, the IC50 in assay [6] amounted to 0.46 nM.

Turning to `Cc1ncnc(N2CCOCC2)c1C#Cc1cncc(NS(=O)(=O)c2ccc(F)cc2F)c1` [Example I-20, 2,4-Difluoro-N-[5-(4-methyl-6-morpholin-4-yl-pyrimidin-5-ylethynyl)-pyridin-3-yl]-benzenesulfonamide], the EC50 is 391 nM in assay [1]; 281 nM in assay [2]; 521 nM in assay [3]; 22 nM in assay [4]; 153 nM in assay [5]. In addition, the IC50 in assay [6] was determined as 0.46 nM.

For `Cc1ncnc(N2CCOCC2)c1C#Cc1cncc(NS(=O)(=O)c2cccs2)c1` [Example I-21, Thiophene-2-sulfonic acid [5-(4-methyl-6-morpholin-4-yl-pyrimidin-5-ylethynyl)-pyridin-3-yl]-amide], the EC50 in assay [1] turned out to be 357 nM; in assay [2], 155 nM; in assay [3] it was 340 nM; in assay [4], 40 nM; in assay [5] it was 196 nM. Moreover, the IC50 in assay [6] stood at 0.53 nM.

`Cc1ncnc(N2CCOCC2)c1C#Cc1cncc(NS(=O)(=O)c2cccnc2)c1` [Example I-22, Pyridine-3-sulfonic acid [5-(4-methyl-6-morpholin-4-yl-pyrimidin-5-ylethynyl)-pyridin-3-yl]-amide]: the EC50 in assay [1] was found to be 4500 nM; in assay [2], 1420 nM; in assay [3] it was 10000 nM; in assay [4], 1380 nM; in assay [5], 3410 nM. In assay [6], the IC50 was determined as 0.8 nM.

As to `Cc1ncnc(N2CCOCC2)c1C#Cc1cncc(NS(=O)(=O)c2cnn(C)c2)c1` [Example I-23, 1-Methyl-1H-pyrazole-4-sulfonic acid [5-(4-methyl-6-morpholin-4-yl-pyrimidin-5-ylethynyl)-pyridin-3-yl]-amide], the EC50 in assay [1] was 2180 nM; in assay [2], 1040 nM; in assay [3], 1750 nM; in assay [4], 214 nM; in assay [5], 3500 nM. Besides, the IC50 in assay [6] was 0.66 nM.

Take `CCc1ncnc(N2CCOCC2)c1C#Cc1cnc(OC)c(NS(=O)(=O)c2ccc(F)cc2F)c1` [Example I-25, N-[5-(4-Ethyl-6-morpholin-4-yl-pyrimidin-5-ylethynyl)-2-methoxy-pyridin-3-yl]-2,4-difluoro-benzenesulfonamide]: the EC50 in assay [1] stood at 15 nM; in assay [2], 46 nM; in assay [3] it was 104 nM; in assay [4], 11 nM; in assay [5] it was 22 nM. Besides, the IC50 in assay [6] is 0.63 nM.
